{"source": "patent US20190133115A1", "about": "“PESTICIDAL SOLUBLE MICRO-EMULSION CONCENTRATE SEED TREATMENT FORMULATIONS” (priority 2017, published 2019)", "origin": "cited, not measured here", "conditions": "in alcohols, e.g., ethanol, acetone, and toluene"}
{"smiles": "COCC(=O)N(c1c(C)cccc1C)C(C)C(=O)OC", "note": "(racemic) [Metalaxyl, methyl N-(methoxyacetyl)-N-(2,6-xylyl)-DL-alanate]", "values": [{"measurement": "solubility", "result": "soluble"}]}
